Source: publication PMC5458519, “Splicing modulators act at the branch point adenosine binding pocket defined by the PHF5A–SF3b complex” (Nature Communications, 2017)

Assays:
[1] = system: HCT116 resistant clones (SF3B1-R1074H, SF3B1-V1078A/I, PHF5A-Y36C); assay: 72 h growth inhibition profiling (CellTiter-Glo) of E7107- and herboxidiene-resistant HCT116 clones; type: cell-based; details: HCT116 clones with SF3B1-R1074H, SF3B1-V1078 or PHF5A-Y36C; 72 h CellTiter-Glo
Protocol: In total, 2.5 million HCT116 cells were seeded in each 10 cm dish and treated with indicated dosages of splicing modulators for 2 weeks. Compounds were refreshed every 4 days. When needed, confluent dishes were split 1:3 and cells were allowed to recover overnight without splicing modulator treatment after re-seeding. At the end of the compound selection period, surviving individual clones were picked and transferred to 12-well plates. Individual resistant clones were further expanded without splicing modulator treatment and one million cells from each clone were pelleted for genomic DNA extraction using the DNeasy Blood & Tissue Kit from Qiagen. WXS libraries were generated by Novogene Corporation using Agilent SureSelect Human All Exon V6 kit and sequenced on Illumina HiSeq platform. 12G raw data were gathered for each sample. WXS reads were then aligned to hg19 by BWA-MEM[40] and somatic mutations were identified with MuTect2 (ref. [41]) through Sentieon pipeline[42] by pairing resistant clone with parental cell lines. As we selected the resistant clones for WXS, the allele frequencies for the mutations which are responsible for the resistance should be high. We focused on non-silent mutations (among the H3 curated spliceosome genes) with allele frequency higher than 0.2.
(§1) For CellTiter-Glo analysis, 500 cells were seeded in each well of a 384-well plate the day before compound addition. An 11 pt serial dilution was used starting with a top final dosage of 10 μM for 10 additional doses. DMSO percentage was maintained throughout and a DMSO-only control was included. Seventy-two hours post compound addition, CellTiter-Glo reagent was added to the medium, incubated and assayed on EnVision Multilabel Reader (PerkinElmer). The luminescence value from each treatment sample was normalized to the average value of the respective DMSO control. The dosage response curve plots were generated using Graphpad Prism 6 and fit using nonlinear regression analysis and the log(inhibitor) versus response—Variable slope (four parameters). For heatmap summarization of IC50 shifts, IC50 value was extracted from dosage response curves and the fold changes of IC50 values in PHF5A variants expressing lines over that of the WT lines were calculated and plotted using TIBCO Spotfire software. For IC50s greater than the top dosage, the values were arbitrarily set at 10 μM. Unsupervised clustering analysis was performed in TIBCO Spotfire using the following default parameters: Clustering method: UPGMA; Distance measure: Euclidean; Ordering weight: Average value; Normalization: (None); Empty value replacement: Constant value: 0.

HCT116 cells = assay: 72 h growth inhibition profiling (CellTiter-Glo cellular viability assay), parental HCT116; type: cell-based; details: in HCT116
Protocol: as §1

PANC0504 cells = assay: Growth inhibition of Panc0504 cells expressing PHF5A WT or Y36C; type: cell-based
Protocol: (§2) Parental HCT116 cells were obtained from ATCC and cultured in RPMI 1,640 medium (Thermo Fisher, GIBCO#11875) supplemented with 10% fetal bovine serum (FBS). Parental Panc0504 cells were obtained from ATCC and cultured in GIBCO RPMI 1,640 medium (Thermo Fisher, GIBCO#11875) supplemented with glucose (to 4.5 g l^−1 final), HEPES (10 mM final), sodium pyruvate (1 mM final), human insulin (10 μg ml^−1 final) and 15% FBS. Cell line authentication was achieved by genetic profiling using polymorphic short tandem repeat (STR) loci (ATCC). All cell lines were free of mycoplasma contamination. […]
(§3) For CellTiter-Glo analysis, 500 cells were seeded in each well of a 384-well plate the day before compound addition. […] Seventy-two hours post compound addition, CellTiter-Glo reagent was added to the medium, incubated and assayed on EnVision Multilabel Reader (PerkinElmer). The luminescence value from each treatment sample was normalized to the average value of the respective DMSO control. […] For heatmap summarization of IC50 shifts, IC50 value was extracted from dosage response curves and the fold changes of IC50 values in PHF5A variants expressing lines over that of the WT lines were calculated and plotted using TIBCO Spotfire software. […]

[2] = system: splicing of SLC25A19, EIF4A1 and MCL1; assay: Taqman gene expression assay (SLC25A19 mRNA, EIF4A1 pre-mRNA, MCL1 isoforms) in PHF5A WT or Y36C HCT116 cells; type: cell-based; details: for induction of MCL1 ES and IR events: PHF5A WT cells, dose response, 4 h
Protocol: Eight thousand cells of indicated genotypes were seeded in each well of 96-well plate and allowed to settle overnight. On the second day, 11 pt serial dilution (1:4 fold dilution across) of indicated compound with a top dosage of 10 μM final was added to the culturing medium. Four hours post compound addition, culturing medium was decanted and washed once with PBS. PBS was then decanted completely from the plate and Lysis buffer (plus DNase I) from TaqMan Gene Expression Cells-to-CT Kit (Thermo Fisher, cat # AM1729) was added according to the manual. After 5 min incubation at RT on the shaker, stop solution was added to each well and incubated for 2 min. Reverse transcription was set up immediately using the Cells-to-CT Kit and cDNAs were used for quantitative real-time PCR analysis using Viia7 (Thermo Fisher). Each reaction is multiplexed with an FAM-labelled probe targeting specific target gene splicing isoforms and a VIC-labelled probe targeted 18S rRNA as loading control. Therefore, the FAM Ct value in each well was first normalized to the VIC Ct value in the same well before further normalization to the FAM/VIC ratio of DMSO-treated control samples to calculate fold change over DMSO. Graphs were generated using Graphpad Prism 6, n=2. Taqman gene expression probes used in these assays are listed in Supplementary Table 1.

[3] = system: global splicing (splice junction usage); assay: RNA-seq differential splicing analysis in PHF5A WT or Y36C overexpressing cells; type: cell-based; details: 100 nM
Protocol: Either PHF5A WT or Y36C mutant-overexpressing cells were treated with either DMSO or E7107 (100 nM and 10 μM) for 6 h in hexaplicate before lysed in TRIzol reagent (Thermo Fisher). After phase separation, the top aqueous phase was further processed using MagMAX-96 Total RNA Isolation Kit (Thermo Fisher, AM1830) for RNA extraction. RNA quality was assessed using Agilent tapestation with RNA screen tape. RNA-seq libraries were prepared by Beijing Genomic Institute (BGI) and sequenced on Illumina Hiseq 4,000 for 6G clean reads per sample. RNA-seq reads were aligned to hg19 by STAR[50] and raw junction counts generated by STAR were used for calculating PSI to quantify splice junction usage relative to all other splice junctions that share the same splice site as described before. Differential PSI were assessed between a pair of sample groups using moderated t-test defined in limma package[52] in Bioconductor. […]
The number of reads which cover the splice junction which excludes a given cassette exon (ES reads) are compared with both the number of spliced reads which share its 3′ splice site yet have an alternative 5′ splice site bordering the cassette exon (exon inclusion reads) and the number of reads which cross the exon–intron boundary at that same 3′ splice site (IR reads). […]

SF3B1 (R1074H) = system: SF3B1 (R1074H); set-up: method as in PMID 21981285; details: single amino acid substitution R1074H in SF3B1; cited from earlier work
[4] = system: PHF5A variant expressing HCT116 cells; assay: 72 h growth inhibition profiling (CellTiter-Glo) of PHF5A WT- or Y36/V37 variant-expressing HCT116 cells; type: cell-based; details: HCT116, 72 h
Protocol: as §2, §3

For `CC[C@H](O)[C@@H](C)[C@H]1O[C@@H]1C[C@@](C)(O)/C=C/C=C(\C)[C@H]1OC(=O)C[C@H](O)CC[C@@](C)(O)[C@@H](OC(=O)N2CCN(C3CCCCCC3)CC2)/C=C/[C@@H]1C` [E7107], the “resistance of resistant clones in growth inhibition profiling” value [1] was “SF3B1-R1074H mutation conferred the most robust resistance”, the GI50 (HCT116 cells; Homo sapiens, HCT-116) was 1.5 nM and the “resistance phenotype on PHF5A Y36C over-expression” value (PANC0504 cells) was “partial resistant phenotype”. For the same compound, the “induction of MCL1 ES and IR events” value [2] was “‘earlier' induction of MCL1 ES events than IR events at lower doses”, the “MCL1-S production (ES events) in PHF5A-Y36C cells compared to WT” value ([2]; increasing dosage) was “enhanced to a higher level” and the “dominant MCL1 splicing event (Sashimi plot of RNA-seq)” value ([3]; PHF5A WT cells) was “IR was the dominant event”. The “dominant MCL1 splicing event (Sashimi plot of RNA-seq)” value ([3]; PHF5A Y36C cells) was “mainly ES events were observed” and the “effect of SF3B1 R1074H on splicing-modulating and antiproliferative effects” value (SF3B1 (R1074H)) was “almost completely abolished”.
In the case of `CC(C)C[C@H](NC(=O)[C@H](Cc1ccccc1)NC(=O)c1cnccn1)B(O)O` [bortezomib, Bortezomib], the “resistance of resistant clones in growth inhibition profiling” value [1] is reported as “did not affect the cell lines' sensitivity” and the “resistance in PHF5A Y36 variant expressing cells” value [4] is reported as “resistance only occurred to the treatment with splicing modulators but not bortezomib”.
For `COC(C(C)O)C(C)C1OC1(C)CC(C)C=CC=C(C)C1OC(CC(=O)O)CCC1C` (stereo not drawn) [herboxidiene], the “resistance of resistant clones in growth inhibition profiling” value [1] was “PHF5A-Y36C mutation rendered more resistance” and the GI50 (HCT116 cells; Homo sapiens, HCT-116) was 7.6 nM.
With `CO[C@]1(C)C[C@@]2(CO2)[C@H](O)[C@@H](/C=C/C(C)=C/C[C@@H]2O[C@H](C)[C@H](NC(=O)/C=C\[C@H](C)OC(C)=O)C[C@@H]2C)O1` [spliceostatin A] the “resistance of resistant clones in growth inhibition profiling” value [1] was “SF3B1-R1074H mutation also conferred better resistance” and the GI50 (HCT116 cells) was 0.76 nM.
In the case of `CNC(=O)OC(C)C=CC(=O)NC1CCC(CC=C(C)C=CC2CC3(CO3)CC(C)(C)O2)CC1` (stereo not drawn) [sudemycin D6], the “resistance of resistant clones in growth inhibition profiling” value [1] is reported as “SF3B1-R1074H mutation also conferred better resistance”, the GI50 (HCT116 cells) is reported as 149 nM and the “induction of MCL1 ES and IR events” value [2] is reported as “IR events were not observed”.
For pladienolide B, the “effect of SF3B1 R1074H on splicing-modulating and antiproliferative effects” value (SF3B1 (R1074H)) is given as “almost completely abolished”.
